Assay results taken from patent US20230114728A1 (Venatorx Pharmaceuticals, Inc., priority 2019, published 2023).
pEC50: −log10 of the molar value. Converted amounts (≈) assume the structure as drawn.

What was measured:
E. coli K12 PBP3 = target: T1, E. coli K12 PBP3 (Escherichia coli, UniProt P0AD68); assay: biochemical; assay type: binding
T1 construct: made in house
In short: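 Fluorescence polarization (ex 490/em 520 nm) competition of inhibitors against Bocillin-FL at 0.1 μM, read up to 60 min. Final PBP levels: E. coli PBP3 1.5 μM; A. baumannii PBP2 2.5 μM, PBP3 0.2 μM in Tris pH 8.0/NaCl/glycerol/Tween 20; N. gonorrhoeae PBP2 […] in Hepes pH 8.0/NaCl/glycerol. EC50 = concentration halving PBP-bound Bocillin-FL.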

N. gonorrhoeae WHO Q = assay: Liquid broth MIC in Fastidious broth; assay type: cell-based; conditions: Neisseria gonorrhoeae, read-out: Minimum Inhibitory Concentration, N. gonorrhoeae WHO Q
In short: (§1)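 MIC = lowest concentration giving <10% growth relative to untreated wells, scored by eye after ~24 h at 36 °C, 5% CO2. Strains carry mosaic PBP2; inoculum 5×10^5 CFU/mL in Fastidious broth with 2-fold serial compound dilutions.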

N. gonorrhoeae WHO Z = assay: Liquid broth MIC in Fastidious broth; assay type: cell-based; conditions: Neisseria gonorrhoeae, read-out: Minimum Inhibitory Concentration, N. gonorrhoeae WHO Z
In short: as §1

T1 sequence (P0AD68 1-577): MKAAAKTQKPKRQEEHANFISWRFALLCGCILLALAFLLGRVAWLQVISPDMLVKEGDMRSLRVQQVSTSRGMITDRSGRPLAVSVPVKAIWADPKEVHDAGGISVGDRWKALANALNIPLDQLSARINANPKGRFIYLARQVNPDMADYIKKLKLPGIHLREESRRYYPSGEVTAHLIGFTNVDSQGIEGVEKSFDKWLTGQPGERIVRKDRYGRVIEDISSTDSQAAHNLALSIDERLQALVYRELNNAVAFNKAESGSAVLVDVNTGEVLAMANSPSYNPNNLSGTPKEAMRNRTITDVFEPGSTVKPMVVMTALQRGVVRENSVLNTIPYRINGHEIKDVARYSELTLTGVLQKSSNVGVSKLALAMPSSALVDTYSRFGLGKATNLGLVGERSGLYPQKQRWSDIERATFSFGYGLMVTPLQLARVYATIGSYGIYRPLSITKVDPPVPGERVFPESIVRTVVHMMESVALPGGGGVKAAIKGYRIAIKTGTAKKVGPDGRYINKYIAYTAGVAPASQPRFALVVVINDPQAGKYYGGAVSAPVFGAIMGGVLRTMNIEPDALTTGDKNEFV

SMILES | pEC50 (E. coli K12 PBP3) | MIC (N. gonorrhoeae WHO Q) | MIC (N. gonorrhoeae WHO Z)
CCN1CCN(C(=O)NC(C(=O)N[C@H]2Cc3cccc(C(=O)O)c3OB2O)c2cc(O)cc(O)c2)C(=O)C1=O (mixture of isomers) [Example 79, (3R)-3-(2-(3,5-dihydroxyphenyl)-2-(4-ethyl-2,3-dioxopiperazine-1-carboxamido)acetamido)-2-hydroxy-3,4-dihydro-2H-benzo[e][1,2]oxaborinine-8-carboxylic acid] | 3.30 to 4.52 | 4 to 8 mg/L | 4 to 8 mg/L
NCCCN1CCN(C(=O)N[C@H](C(=O)N[C@H]2Cc3ccc(F)c(C(=O)O)c3OB2O)c2ccc(O)c(O)c2Cl)C(=O)C1=O (single isomer, unassigned) [Example 28] | 3.30 to 4.52 |  | 
CCN1CCN(C(=O)N[C@H](C(=O)N[C@H]2Cc3cccc(C(=O)O)c3OB2O)c2cc(O)cc(O)c2)C(=O)C1=O (single isomer, unassigned) [Example 81] | < 3.30 | 16 to 32 mg/L (≈ 29.6 to 59.2 µM) | 16 to 32 mg/L (≈ 29.6 to 59.2 µM)
CCN1CCN(C(=O)N[C@@H](C(=O)N[C@H]2Cc3cccc(C(=O)O)c3OB2O)c2cc(O)cc(O)c2)C(=O)C1=O (single isomer, unassigned) [Example 82] | 3.30 to 4.52 | 4 to 8 mg/L (≈ 7.4 to 14.8 µM) | 4 to 8 mg/L (≈ 7.4 to 14.8 µM)
NCCN1CCN(C(=O)N[C@H](C(=O)N[C@H]2Cc3cccc(C(=O)O)c3OB2O)c2ccc(C(=O)O)cc2)C(=O)C1=O (single isomer, unassigned) [Example 83] | 3.30 to 4.52 | > 64 mg/L | > 64 mg/L
NCCN1CCN(C(=O)N[C@H](C(=O)N[C@H]2Cc3cccc(C(=O)O)c3OB2O)c2ccc(O)cc2F)C(=O)C1=O (single isomer, unassigned) [Example 88] | 3.30 to 4.52 | > 64 mg/L | > 64 mg/L
O=C(NC(C(=O)N[C@H]1Cc2ccc(F)c(C(=O)O)c2OB1O)c1ncc(O)cc1F)c1c(F)cc(O)c(O)c1Cl (stereo partly drawn) [Example 10, (3R)-3-(2-(2-chloro-6-fluoro-3,4-dihydroxybenzamido)-2-(3-fluoro-5-hydroxypyridin-2-yl)acetamido)-7-fluoro-2-hydroxy-3,4-dihydro-2H-benzo[e][1,2]oxaborinine-8-carboxylic acid] | 3.30 to 4.52 |  | 
CCN1CCN(C(=O)NC(C(=O)N[C@H]2Cc3cccc(C(=O)O)c3OB2O)c2ccc(O)c(NC(C)=O)c2)C(=O)C1=O (stereo partly drawn) [Example 17, (3R)-3-(2-(3-acetamido-4-hydroxyphenyl)-2-(4-ethyl-2,3-dioxopiperazine-1-carboxamido)acetamido)-2-hydroxy-3,4-dihydro-2H-benzo[e][1,2]oxaborinine-8-carboxylic acid] | 3.30 to 4.52 |  | 
CCN1CCN(C(=O)NC(C(=O)N[C@H]2Cc3ccc(F)c(C(=O)O)c3OB2O)c2nc(N)sc2F)C(=O)C1=O (stereo partly drawn) [Example 18, (3R)-3-(2-(2-amino-5-fluorothiazol-4-yl)-2-(4-ethyl-2,3-dioxopiperazine-1-carboxamido)acetamido)-7-fluoro-2-hydroxy-3,4-dihydro-2H-benzo[e][1,2]oxaborinine-8-carboxylic acid] | > 4.52 |  | 4 to 8 mg/L (≈ 7.06 to 14.1 µM)
CCN1CCN(C(=O)N[C@H](C(=O)N[C@H]2Cc3cccc(C(=O)O)c3OB2O)c2nc(Cl)c(C(=O)O)cc2F)C(=O)C1=O [Example 19, 6-((S)-2-(((R)-8-carboxy-2-hydroxy-3,4-dihydro-2H-benzo[e][1,2]oxaborinin-3-yl)amino)-1-(4-ethyl-2,3-dioxopiperazine-1-carboxamido)-2-oxoethyl)-2-chloro-5-fluoronicotinic acid] | > 4.52 |  | 
CCN1CCN(C(=O)NC(C(=O)N[C@H]2Cc3cccc(C(=O)O)c3OB2O)c2ncc(C(=O)O)cc2F)C(=O)C1=O (stereo partly drawn) [Example 20, 6-(2-(((R)-8-carboxy-2-hydroxy-3,4-dihydro-2H-benzo[e][1,2]oxaborinin-3-yl)amino)-1-(4-ethyl-2,3-dioxopiperazine-1-carboxamido)-2-oxoethyl)-5-fluoronicotinic acid] | > 4.52 |  | 
CCN1CCN(C(=O)NC(C(=O)N[C@H]2Cc3cccc(C(=O)O)c3OB2O)c2ccc(O)c(N(S(C)(=O)=O)S(C)(=O)=O)c2)C(=O)C1=O (stereo partly drawn) [Example 21, (3R)-3-(2-(4-ethyl-2,3-dioxopiperazine-1-carboxamido)-2-(4-hydroxy-3-(N-(methylsulfonyl)methylsulfonamido)phenyl)acetamido)-2-hydroxy-3,4-dihydro-2H-benzo[e][1,2]oxaborinine-8-carboxylic acid] | > 4.52 |  | 
CCN1CCN(C(=O)NC(C(=O)N[C@H]2Cc3cccc(C(=O)O)c3OB2O)c2ccc(O)c(NS(C)(=O)=O)c2)C(=O)C1=O (stereo partly drawn) [Example 22, (3R)-3-(2-(4-ethyl-2,3-dioxopiperazine-1-carboxamido)-2-(4-hydroxy-3-(methylsulfonamido)phenyl)acetamido)-2-hydroxy-3,4-dihydro-2H-benzo[e][1,2]oxaborinine-8-carboxylic acid] | > 4.52 |  | 
NCCN1CCN(C(=O)NC(C(=O)N[C@H]2Cc3ccc(F)c(C(=O)O)c3OB2O)c2nc(N)sc2F)C(=O)C1=O (stereo partly drawn) [Example 24, (3R)-3-(2-(2-amino-5-fluorothiazol-4-yl)-2-(4-(2-aminoethyl)-2,3-dioxopiperazine-1-carboxamido)acetamido)-7-fluoro-2-hydroxy-3,4-dihydro-2H-benzo[e][1,2]oxaborinine-8-carboxylic acid] | 3.30 to 4.52 |  | 
CCN1CCN(C(=O)NC(C(=O)N[C@H]2Cc3cccc(C(=O)O)c3OB2O)c2ccc(O)c(N)c2)C(=O)C1=O (stereo partly drawn) [Example 29, (3R)-3-(2-(3-amino-4-hydroxyphenyl)-2-(4-ethyl-2,3-dioxopiperazine-1-carboxamido)acetamido)-2-hydroxy-3,4-dihydro-2H-benzo[e][1,2]oxaborinine-8-carboxylic acid] | > 4.52 |  | 
CCN1CCN(C(=O)NC(C(=O)N[C@H]2Cc3cccc(C(=O)O)c3OB2O)c2ccc(O)c(NS(N)(=O)=O)c2)C(=O)C1=O (stereo partly drawn) [Example 30, (3R)-3-(2-(4-ethyl-2,3-dioxopiperazine-1-carboxamido)-2-(4-hydroxy-3-(sulfamoylamino)phenyl)acetamido)-2-hydroxy-3,4-dihydro-2H-benzo[e][1,2]oxaborinine-8-carboxylic acid] | > 4.52 |  | 
N[C@@H](C(=O)N[C@H]1Cc2ccc(F)c(C(=O)O)c2OB1O)c1ccc(OS(=O)(=O)F)cc1 [Example 32, (R)-3-((R)-2-amino-2-(4-((fluorosulfonyl)oxy)phenyl)acetamido)-7-fluoro-2-hydroxy-3,4-dihydro-2H-benzo[e][1,2]oxaborinine-8-carboxylic acid] | < 3.30 |  | 
NS(=O)(=O)NC(C(=O)N[C@H]1Cc2ccc(F)c(C(=O)O)c2OB1O)c1ncc(O)cc1F (stereo partly drawn) [Example 43, (3R)-7-fluoro-3-(2-(3-fluoro-5-hydroxypyridin-2-yl)-2-(sulfamoylamino)acetamido)-2-hydroxy-3,4-dihydro-2H-benzo[e][1,2]oxaborinine-8-carboxylic acid] | < 3.30 |  | 
NS(=O)(=O)NC(C(=O)N[C@H]1Cc2cccc(C(=O)O)c2OB1O)c1ccc(C(=O)O)c(F)c1 (stereo partly drawn) [Example 44, (3R)-3-(2-(4-carboxy-3-fluorophenyl)-2-(sulfamoylamino)acetamido)-2-hydroxy-3,4-dihydro-2H-benzo[e][1,2]oxaborinine-8-carboxylic acid] | < 3.30 |  | 
O=C(Nc1ccccc1)NC(C(=O)N[C@H]1Cc2ccc(F)c(C(=O)O)c2OB1O)c1ncc(O)cc1F (stereo partly drawn) [Example 49, (3R)-7-fluoro-3-(2-(3-fluoro-5-hydroxypyridin-2-yl)-2-(3-phenylureido)acetamido)-2-hydroxy-3,4-dihydro-2H-benzo[e][1,2]oxaborinine-8-carboxylic acid] | 3.30 to 4.52 |  | 
CCN1CCN(C(=O)NC(C(=O)N[C@H]2Cc3cccc(C(=O)O)c3OB2O)c2ccc(N)c(F)c2)C(=O)C1=O (stereo partly drawn) [Example 50, (3R)-3-(2-(4-amino-3-fluorophenyl)-2-(4-ethyl-2,3-dioxopiperazine-1-carboxamido)acetamido)-2-hydroxy-3,4-dihydro-2H-benzo[e][1,2]oxaborinine-8-carboxylic acid] | > 4.52 |  | 
N=C(N)NCCN1CCN(C(=O)NC(C(=O)N[C@H]2Cc3ccc(F)c(C(=O)O)c3OB2O)c2ncc(O)cc2F)C(=O)C1=O (stereo partly drawn) [Example 51, (3R)-7-fluoro-3-(2-(3-fluoro-5-hydroxypyridin-2-yl)-2-(4-(2-guanidinoethyl)-2,3-dioxopiperazine-1-carboxamido)acetamido)-2-hydroxy-3,4-dihydro-2H-benzo[e][1,2]oxaborinine-8-carboxylic acid] | 3.30 to 4.52 |  | 
N=C(N)NC(C(=O)N[C@H]1Cc2ccc(F)c(C(=O)O)c2OB1O)c1ncc(O)cc1F (stereo partly drawn) [Example 52, (3R)-7-fluoro-3-(2-(3-fluoro-5-hydroxypyridin-2-yl)-2-guanidinoacetamido)-2-hydroxy-3,4-dihydro-2H-benzo[e][1,2]oxaborinine-8-carboxylic acid] | < 3.30 |  | 
CCN1CCN(C(=O)NC(C(=O)N[C@H]2Cc3ccc(S)c(C(=O)O)c3OB2O)c2csc(N)n2)C(=O)C1=O (stereo partly drawn) [Example 54, (3R)-3-(2-(2-aminothiazol-4-yl)-2-(4-ethyl-2,3-dioxopiperazine-1-carboxamido)acetamido)-2-hydroxy-7-mercapto-3,4-dihydro-2H-benzo[e][1,2]oxaborinine-8-carboxylic acid] | 3.30 to 4.52 |  | 
CCN1CCN(C(=O)NC(C(=O)N[C@H]2Cc3ccc(SCc4ccc(O)cc4)c(C(=O)O)c3OB2O)c2csc(N)n2)C(=O)C1=O (stereo partly drawn) [Example 55, (3R)-3-(2-(2-aminothiazol-4-yl)-2-(4-ethyl-2,3-dioxopiperazine-1-carboxamido)acetamido)-2-hydroxy-7-((4-hydroxybenzyl)thio)-3,4-dihydro-2H-benzo[e][1,2]oxaborinine-8-carboxylic acid] | 3.30 to 4.52 |  | 
